The target in test [1] is T1, α5β3γ2 GABAA/BzR (Homo sapiens, UniProt P18507+P31644). The test is described as follows: Competition binding to HEK cell membranes, α5β3γ2. Details: expressed in transfected cells.
In test [2] the target is T2, α1β3γ2 GABAA/BzR (Homo sapiens, UniProt P14867+P18507). Further details: expressed in transfected cells; host or cells: LTK cells (given for XLi-093 only). To be noted: cited from earlier work.
Test [3] addresses T3, α4β3γ2 GABAA/BzR (Homo sapiens, UniProt P18507+P48169).
T3 construct: expressed in transfected cells; host or cells: LTK cells (given for XLi-093 only)
The test is described as follows: biochemical. The test is classed as binding.

For test [4], the target named is T4, α3β3γ2 GABAA/BzR (Homo sapiens, UniProt P18507+P34903). Details: expressed in transfected cells; host or cells: LTK cells (given for XLi-093 only). To be noted: cited from earlier work.
The target of test [5] is T5, α2β3γ2 GABAA/BzR (Homo sapiens, UniProt P18507+P47869). Further details: expressed in transfected cells; host or cells: LTK cells (given for XLi-093 only). As to conditions: cited from earlier work.
Test [6] has as its target T4, α3β3γ2 GABAA/BzR. Kind of test: Competition binding to HEK cell membranes, α3β3γ2. Further details: expressed in transfected cells.
Test [7] deals with T5, α2β3γ2 GABAA/BzR. The test is described as follows: Competition binding to HEK cell membranes, α2β3γ2. Further details: expressed in transfected cells.
The target of test [8] is T6, α6β3γ2 GABAA/BzR (Homo sapiens, UniProt P18507+Q16445). The test is described as follows: Competition binding to HEK cell membranes, α6β3γ2. Details: expressed in transfected cells.
Test [9] deals with T1, α5β3γ2 GABAA/BzR. Further details: expressed in transfected cells; host or cells: LTK cells (given for XLi-093 only). As to conditions: cited from earlier work.
For test [10], the target named is T6, α6β3γ2 GABAA/BzR. Further details: expressed in transfected cells; host or cells: LTK cells (given for XLi-093 only). As to conditions: cited from earlier work.
The target of test [11] is T3, α4β3γ2 GABAA/BzR. To be noted: cited from earlier work.
Test [12] addresses T2, α1β3γ2 GABAA/BzR. The test is described as follows: Competition binding to HEK cell membranes, α1β3γ2. Further details: expressed in transfected cells.
Setting [13] is: Figure 33, αxβ3γ2, read-out: Affinity Ki α1.
Where [14] appears, read: Figure 33, αxβ3γ2, read-out: Affinity Ki α3.
Where [15] appears, read: Figure 33, αxβ3γ2, read-out: Affinity Ki α2.
Where [16] appears, read: Figure 33, αxβ3γ2, read-out: Affinity Ki α5.
The mark [17] stands for this setting: Figure 33, αxβ3γ2, read-out: Affinity Ki α6.
Where [18] appears, read: Figure 33, αxβ3γ2, read-out: Affinity Ki α4.

Read-outs that look alike come from different tables or passages of the source. A value given as a limit tells only on which side of the number the result lay.

Consider `O=C(OCC(F)(F)F)c1cc2c(cn1)[nH]c1ccc(-c3cccs3)cc12` [WY-B-27-2], for which the Ki on α5β3γ2 GABAA/BzR [1] (read-out: Ki α5) is 449 nM; at α1β3γ2 GABAA/BzR [2] (read-out: Affinity Ki α1), 9.2 nM; at α4β3γ2 GABAA/BzR [3] (read-out: Ki α4) it was 2000 nM; on α3β3γ2 GABAA/BzR [4] (read-out: Affinity Ki α3), 72 nM; on α2β3γ2 GABAA/BzR [5] (read-out: Affinity Ki α2), 13 nM; at α3β3γ2 GABAA/BzR [6] (read-out: Ki α3), 72 nM. For the same compound, the Ki at α2β3γ2 GABAA/BzR [7] (read-out: Ki α2) was 111 nM; on α6β3γ2 GABAA/BzR [8] (read-out: Ki α6), 2000 nM; at α5β3γ2 GABAA/BzR [9] (read-out: Affinity Ki α5), 449 nM; on α6β3γ2 GABAA/BzR [10] (read-out: Affinity Ki α6), 2000 nM; on α4β3γ2 GABAA/BzR [11] (read-out: Affinity Ki α4) it was 2000 nM; on α1β3γ2 GABAA/BzR [12] (read-out: Ki α1), 9.19 nM.
Regarding `CC(C)(C)OC(=O)c1cc2c(cn1)[nH]c1ccc(C#Cc3ccc4[nH]c5cnc(C(=O)OC(C)(C)C)cc5c4c3)cc12` [42(WY-S-2)], the Ki was 30 nM on α1β3γ2 GABAA/BzR [2] (read-out: Affinity Ki α1); 100 nM on α3β3γ2 GABAA/BzR [4] (read-out: Affinity Ki α3); 124 nM at α2β3γ2 GABAA/BzR [5] (read-out: Affinity Ki α2); over 300 nM at α5β3γ2 GABAA/BzR [9] (read-out: Affinity Ki α5); over 4000 nM at α6β3γ2 GABAA/BzR [10] (read-out: Affinity Ki α6); over 300 nM on α4β3γ2 GABAA/BzR [11] (read-out: Affinity Ki α4). Further, the Ki on α1β3γ2 GABAA/BzR [12] (binding to α1 subtypes) is 30 nM.
Regarding `CCOC(=O)c1cc2c(cn1)[nH]c1ccc(I)cc12` [31(iodo-βCCE)], the Ki is 4.8 nM at α1β3γ2 GABAA/BzR [2] (read-out: Affinity Ki α1); 34 nM on α3β3γ2 GABAA/BzR [4] (read-out: Affinity Ki α3); 31 nM on α2β3γ2 GABAA/BzR [5] (read-out: Affinity Ki α2); 286 nM on α5β3γ2 GABAA/BzR [9] (read-out: Affinity Ki α5); 1000 nM at α6β3γ2 GABAA/BzR [10] (read-out: Affinity Ki α6); 1000 nM at α4β3γ2 GABAA/BzR [11] (read-out: Affinity Ki α4).
For `O=C(OCC(F)(F)F)c1cc2c(cn1)[nH]c1ccc(I)cc12` [WY-B-20], the Ki on α5β3γ2 GABAA/BzR [1] (Ki α5) was 122 nM; on α1β3γ2 GABAA/BzR [2] (setting [13]), 12 nM; at α4β3γ2 GABAA/BzR [3], 2000 nM; at α3β3γ2 GABAA/BzR [4] (setting [14]), 47 nM; on α2β3γ2 GABAA/BzR [5] (setting [15]), 39 nM; on α3β3γ2 GABAA/BzR [6] (Ki α3), 47 nM. The Ki at α2β3γ2 GABAA/BzR [7] (Ki α2) was 39 nM; at α6β3γ2 GABAA/BzR [8] (Ki α6), 3000 nM; on α5β3γ2 GABAA/BzR [9] (setting [16]), 122 nM; on α6β3γ2 GABAA/BzR [10] (setting [17]), 3000 nM; on α4β3γ2 GABAA/BzR [11] (setting [18]), 2000 nM; on α1β3γ2 GABAA/BzR [12] (Ki α1), 12 nM.
On to `CCOC(=O)c1cc2c(cn1)[nH]c1ccc(C#C[Si](C)(C)C)cc12` [WY-B-99-1], for which the Ki at α5β3γ2 GABAA/BzR [1] (Ki α5) was 47 nM; on α5β3γ2 GABAA/BzR [1] (read-out: Ki α5), 47 nM; at α1β3γ2 GABAA/BzR [2] (setting [13]) it was 4.4 nM; on α4β3γ2 GABAA/BzR [3], 2000 nM; on α3β3γ2 GABAA/BzR [4] (setting [14]) it was 5.58 nM; at α2β3γ2 GABAA/BzR [5] (setting [15]) it was 4.5 nM. For the same compound, the Ki is 5.58 nM at α3β3γ2 GABAA/BzR [6] (Ki α3); 5.58 nM on α3β3γ2 GABAA/BzR [6] (read-out: Ki α3); 4.5 nM at α2β3γ2 GABAA/BzR [7] (Ki α2); 4.5 nM at α2β3γ2 GABAA/BzR [7] (read-out: Ki α2); 2000 nM on α6β3γ2 GABAA/BzR [8] (Ki α6); 47 nM at α5β3γ2 GABAA/BzR [9] (setting [16]). Further, the Ki on α6β3γ2 GABAA/BzR [10] (setting [17]) is 2000 nM; on α4β3γ2 GABAA/BzR [11] (setting [18]) it was 2000 nM; on α1β3γ2 GABAA/BzR [12] (Ki α1) it was 4.4 nM; at α1β3γ2 GABAA/BzR [12] (read-out: Ki α1) it was 4.4 nM.
For `C#CC#Cc1ccc2c(c1)C(=O)N1CCC[C@H]1c1c(C(=O)OCC)ncn1-2` [compound 8], the Ki was over 1000 nM at α1β3γ2 GABAA/BzR [2] (Figure 4, read-out: Ki α1); over 1000 nM on α3β3γ2 GABAA/BzR [4] (Figure 4, read-out: Ki α3); over 1000 nM on α2β3γ2 GABAA/BzR [5] (Figure 4, read-out: Ki α2); 64 nM at α5β3γ2 GABAA/BzR [9] (Figure 4, read-out: Ki α5); over 1000 nM on α6β3γ2 GABAA/BzR [10] (Figure 4, read-out: Ki α6); over 1000 nM at α4β3γ2 GABAA/BzR [11] (Figure 4, read-out: Ki α4).
Regarding `O=C(OCC(F)(F)F)c1cc2c(cn1)[nH]c1ccc(-c3ccco3)cc12` [34(WYB27-1)], the Ki was 26 nM at α1β3γ2 GABAA/BzR [2] (read-out: Affinity Ki α1); 117 nM on α3β3γ2 GABAA/BzR [4] (read-out: Affinity Ki α3); 143 nM at α2β3γ2 GABAA/BzR [5] (read-out: Affinity Ki α2); 127 nM on α5β3γ2 GABAA/BzR [9] (read-out: Affinity Ki α5); 2000 nM at α6β3γ2 GABAA/BzR [10] (read-out: Affinity Ki α6); 3000 nM on α4β3γ2 GABAA/BzR [11] (read-out: Affinity Ki α4).
For `CC(C)(C)OC(=O)c1cc2c(cn1)[nH]c1ccc(C#CC#Cc3ccc4[nH]c5cnc(C(=O)OC(C)(C)C)cc5c4c3)cc12` [43(WY-S-6)], the Ki on α1β3γ2 GABAA/BzR [2] (read-out: Affinity Ki α1) was 120 nM; on α3β3γ2 GABAA/BzR [4] (read-out: Affinity Ki α3) it was 3940 nM; on α2β3γ2 GABAA/BzR [5] (read-out: Affinity Ki α2) it was 1060 nM; at α5β3γ2 GABAA/BzR [9] (read-out: Affinity Ki α5), 5000 nM; at α6β3γ2 GABAA/BzR [10] (read-out: Affinity Ki α6) it was 5000 nM; on α4β3γ2 GABAA/BzR [11] (read-out: Affinity Ki α4) it was 5000 nM. Moreover, the Ki on α1β3γ2 GABAA/BzR [12] (binding to α1 subtypes) was 120 nM.

The values above are taken from publication PMC4657098, “A Review of the Updated Pharmacophore for the Alpha 5 GABA(A) Benzodiazepine Receptor Model” (International Journal of Medicinal Chemistry, 2015).
